The test concerns the target T1, Diacylglycerol O-acyltransferase 2 (Homo sapiens, UniProt Q96PD7).
T1 sequence (Q96PD7 whole entry): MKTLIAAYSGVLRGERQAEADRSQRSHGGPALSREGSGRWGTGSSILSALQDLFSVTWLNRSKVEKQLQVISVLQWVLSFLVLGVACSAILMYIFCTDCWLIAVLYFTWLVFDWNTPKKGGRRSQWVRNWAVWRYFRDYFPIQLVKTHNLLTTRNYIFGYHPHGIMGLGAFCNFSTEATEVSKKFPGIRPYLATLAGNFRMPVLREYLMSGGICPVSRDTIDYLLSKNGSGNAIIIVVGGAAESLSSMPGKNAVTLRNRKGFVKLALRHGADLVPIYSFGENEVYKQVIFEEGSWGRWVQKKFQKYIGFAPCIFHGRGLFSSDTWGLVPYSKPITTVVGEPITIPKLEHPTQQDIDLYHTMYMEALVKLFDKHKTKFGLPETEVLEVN
In words: Enzymatic Activity Assay: DGAT2 activity was determined by measuring the amount of enzymatic product triolein (1,2,3-Tri(cis-9-octadecenoyl)glycerol) using the membrane prep mentioned above. The assay was carried out in deep well 384 plates in a final volume of 40 μL at room temperature. The assay mixture contained the following: assay buffer (100 mM Tris.Cl, pH 7.0, 20 mM MgCl2, 5% ethanol), 25 μM of diolein, 10 μM of oleoyl-CoA and 10 ng/μL of DGAT2 membrane.

SMILES strings stand for the structures.

As for `CC(C)(C)OC(=O)N1C[C@@H](O)[C@H](NC(=O)c2ccc3c(-c4ccccc4Cl)nn(-c4ccc(F)cc4)c3c2)C1`, the IC50 was 205 nM.

Usually IC50 stands for the point on the concentration scale where inhibition reaches its midpoint.

Source of the values: ChEMBL document CHEMBL5728709, “Indazole derivatives useful as inhibitors of diacylglyceride O-acyltransferase 2” (2021).
